Laboratory results reported in ChEMBL document CHEMBL3351565, “Cycloartane-type triterpenes from Euphorbia fischeriana stimulate human CYP3A4 promoter activity” (Bioorg Med Chem Lett, 2014).

Legend:
CYP3A4 = CYP3A4 (Homo sapiens, UniProt P08684); test: (§1) Induction of CYP3A4 in human HepG2 cells at 10 uM after 24 hrs by luciferase reporter gene assay in presence of hPXR relative to control; settings: HepG2 cells with hPXR and CYP3A4 luciferase reporter
Hepatocyte = test: Induction of CYP3A4 mRNA expression in human primary hepatocytes at 10 uM after 24 hrs by RT-PCR analysis
Cytochrome P450 3A4 = Cytochrome P450 3A4 (Homo sapiens, UniProt P08684); test: as §1; settings: hepg2, 24 h, 10 µM
Sequence of Cytochrome P450 3A4 (P08684 whole entry): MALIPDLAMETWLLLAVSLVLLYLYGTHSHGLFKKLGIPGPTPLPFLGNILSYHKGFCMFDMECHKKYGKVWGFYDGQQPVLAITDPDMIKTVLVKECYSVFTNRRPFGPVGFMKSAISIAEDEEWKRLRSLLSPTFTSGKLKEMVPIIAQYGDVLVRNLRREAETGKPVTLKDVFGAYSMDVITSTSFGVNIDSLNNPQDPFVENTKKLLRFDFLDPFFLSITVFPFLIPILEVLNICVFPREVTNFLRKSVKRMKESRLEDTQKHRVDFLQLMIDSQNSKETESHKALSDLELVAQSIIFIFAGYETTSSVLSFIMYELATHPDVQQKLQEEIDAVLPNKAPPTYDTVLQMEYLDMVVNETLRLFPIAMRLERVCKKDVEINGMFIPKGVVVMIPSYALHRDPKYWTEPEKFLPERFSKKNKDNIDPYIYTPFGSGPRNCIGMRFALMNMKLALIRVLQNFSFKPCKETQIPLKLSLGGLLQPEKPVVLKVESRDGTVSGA

Sequence of CYP3A4 (P08684 whole entry): as above

| Structure (SMILES) | fold induction at 24 h, 10 µM (CYP3A4) | Activity (Hepatocyte) | Activity (Cytochrome P450 3A4) |
| --- | --- | --- | --- |
| CC(C)C(=O)CC[C@@H](C)[C@H]1CC[C@@]2(C)[C@@H]3CC[C@H]4C(C)(C)[C@@H](O)CC[C@@]45C[C@@]35CC[C@]12C | 4 | Active | – |
| CC(=O)O[C@H]1CC[C@]23C[C@]24CC[C@]2(C)[C@@H]([C@H](C)CCC(=O)C(C)C)CC[C@@]2(C)[C@@H]4CC[C@H]3C1(C)C | – | – | Not Active |
| C=C(CC[C@@H](C)[C@H]1CC[C@@]2(C)[C@@H]3CC[C@H]4C(C)(C)[C@@H](O)CC[C@@]45C[C@@]35CC[C@]12C)C(C)(C)O | 4 | Active | – |
| COC(CO)(CC[C@@H](C)[C@H]1CC[C@@]2(C)[C@@H]3CC[C@H]4C(C)(C)[C@@H](O)CC[C@@]45C[C@@]35CC[C@]12C)C(C)C (mixture of isomers) | 9.4 | Not Active | – |

Results, then the compound that gave them:

| fold induction at 24 h, 10 µM (CYP3A4) | Activity (Hepatocyte) | Activity (Cytochrome P450 3A4) | Structure (SMILES) |
| --- | --- | --- | --- |
| – | – | Not Active | CC(=O)O[C@H]1CC[C@]2(C)C3=CC=C4[C@@H]5CC(C)(C)CC[C@]5(C)CC[C@@]4(C)[C@]3(C)CC[C@H]2C1(C)C |
| – | – | Not Active | C=C(C)[C@@H]1CC[C@]2(C)CC[C@]3(C)[C@H](CC[C@@H]4[C@@]5(C)CC[C@@H](O)C(C)(C)[C@@H]5CC[C@]43C)[C@@H]12 |
| – | – | Active | CC(C)C1(CC[C@@H](C)[C@H]2CC[C@@]3(C)[C@@H]4CC[C@H]5C(C)(C)[C@@H](O)CC[C@@]56C[C@@]46CC[C@]23C)CO1 (mixture of isomers) |
| – | – | Not Active | C=C(C)[C@@H]1CC[C@]2(C)CC[C@]3(C)[C@H](CC[C@@H]4[C@@]5(C)CC[C@H](O)C(C)(C)[C@@H]5CC[C@]43C)[C@@H]12 [LUPEOL] |
